Experimental data published in US20240114902A1, “COMPOSITIONS AND METHODS FOR DETERRING OVIPOSITION BY FRUIT FLIES” (The United States of America, as represented by The …, priority 2022, published 2024).

How the values were obtained:
[1] = system: melon fly (Zeugodacus cucurbitae); assay: Additional fatty acids: melon fly two-choice oviposition bioassay on pumpkin juice agar; format: in vivo; conditions: 20 mg, 24 hours
Method: (§1) Oviposition bioassays were conducted using laboratory two-choice cage experiments with pumpkin juice-infused agar (for Melon fly) and guava juice-infused agar (for OFF) as oviposition substrate. The agar plates were prepared by pouring 10 mL of boiled agar mixture [1000 mL distilled water, 500 mL pumpkin or guava juice, 10 g agar, 0.6 g methylparaben, 6.7 mL 95% ethanol, and 3 mL acetic acid] into a small petri dish (60 mm×15 mm). The agar was then covered with a lid to avoid desiccation. The two-choice oviposition bioassay was conducted in screened cages using 20 mated melon fly or OFF females per cage (14-18 day-old; Jang et al.; Supra) over 24 hours. Each cage was provided with a ball of water-saturated cotton and sugar+protein hydrolysate mixture in separate 30 mL deli cups, and two agar plates-one treated with one of the test compounds (C4:0 (Butyric acid), C5:0 (Valeric acid), C6:0 (Caproic acid), C7:0 (Enanthic acid), C9:0 (Pelargonic acid), C11:0 (Undecylic acid), C13:0 (Tridecylic acid), C15:0 (Pentadecylic acid), C17:0 (Margaric acid), or C19:0 (Nonadecylic acid)) diluted in ethanol and the other treated with the ethanol which served as a control. The agar plates were surface-treated either with 200 μL of ethanol (control) or 200 μL of one of tested compounds diluted at 20 mg/200 μL of ethanol, placed into a fume hood for 10 minutes to evaporate solvents prior to be used in bioassays, and positioned upside-down (i.e. treated side down) on the center of the outside top of the screened cage 17 cm apart from each other (i.e. one each of control and treated), allowing female flies to oviposit on pumpkin (for melon fly) or guava juice (for OFF) agar from the bottom through the cage screen. After 24 hours, melon fly and OFF eggs in the agar were gently separated from the agar in water and the number of eggs were individually counted. The experiment was replicated five times per treatment.

[2] = system: oriental fruit fly (OFF); assay: Additional fatty acids: OFF two-choice oviposition bioassay on guava juice agar, 24 hours; format: in vivo, Bactrocera dorsalis; conditions: individual compound, 20 mg dose
Method: as §1

[3] = system: Zeugodacus cucurbitae; assay: Spatial repellency of fatty acid methyl esters, two-choice traps with pumpkin juice; format: in vivo; conditions: 100 μL doses
Description: The methods used to test the repellency of fatty acid methyl esters for OFF described above were used in this Example, with minor modifications. The only difference was that pumpkin juice was used as attractant in traps. Melon flies used in this study were from melon fly colony at the U.S Pacific Basin Agricultural Research Center in Hilo, Hawaii, which were maintained on a standard larval diet containing wheat, sugar, and yeast (Tanaka at al., Supra). Chemicals tested were C8:0ME (Methyl octanoate), C10:0ME (Methyl decanoate), C12:0ME (Methyl laurate), C14:0ME (Methyl tetradecanoate), C16:0ME (Methyl palmitate), C18:0ME (Methyl stearate), C18:1ME (Methyl Oleate), and C18:2 (Methyl linoleate).

[4] = system: Bactrocera dorsalis (OFF); assay: OFF two-choice cage oviposition bioassay on guava juice-infused agar; format: in vivo; conditions: individual compound, 20 mg/agar
Method: Evaluation of oviposition deterrence of CFA: OFF oviposition bioassays were conducted using laboratory two-choice cage experiments with guava juice-infused agar as an oviposition substrate. The agar plates were prepared by pouring 30 mL of boiled agar mixture [1000 mL distilled water, 500 mL guava juice (Deans Foods, El Paso, Texas, USA), 10 g agar, 0.6 g methylparaben, 6.7 mL 95% ethanol, and 3 mL acetic acid] into a 30 mL deli plastic cup to gel. The agar was then covered with a lid to avoid desiccation. The two-choice oviposition bioassay was conducted in screened cages using 20 mated OFF females per cage (12-18 day-old; Jang E B et al., 1997, “Attraction of female oriental fruit fly, Bactrocera dorsalis, to volatile semiochemicals from leaves and extracts of a non-host plant, Panax (Polyscias guilfoylei) in laboratory and olfactometer assays,” J. Chem. Ecol. 23:1389-1401) over 3 days. Each cage was provided with a ball of water-saturated cotton, sugar, and protein hydrolysate in separate 30 mL deli cups and two guava juice agar plates-one treated with CFA diluted in hexane and the other treated with the hexane control. The agar plates were surface-treated either with 200 μL of hexane or 200 μL of CFA in one of 4 doses tested (20, 2, 0.2, and 0.02 mg/200 μL of hexane), placed into a fume hood for 10 minutes prior to use in bioassays, and positioned upside-down (i.e., treated side down) on the center of the outside top of the screened cage 17 cm apart from each other (i.e., one each of control and CFA treated), allowing female flies to oviposit on guava juice agar from the bottom through the cage screen. After three days, OFF eggs in the guava agar were gently separated from the agar in water and the number of eggs were individually counted (up to 100 eggs) or estimated volumetrically at 1 mL OFF eggs=20,000 eggs (Stephanie Gayle personal communication). The experiment was replicated six times per treatment. Determination of bioactive oviposition deterrent components from CFA: A series of bioassays was conducted to identify key deterrent components of CFA for OFF using the same two-choice bioassay design described above. […] Ethanol was used as control and for preparing dilutions of C16:0 and C18:0. Hexane was used as control and for dilutions of the other six compounds tested. Based on the outcome of these bioassays, the eight free fatty acid components were assigned to “OFF negative” (i.e., oviposition reduced), “OFF neutral” (i.e., no effect on oviposition), and “OFF positive” (i.e., oviposition increased) compound groups. Using these groupings, four different blends were formulated (indicated in Table 1), composed at the equivalent ratios and concentrations of each component found in CFA (Zhu J J et al., 2018, supra), to determine key bioactive CFA components in terms of oviposition deterrence on OFF. The approach involved testing the bioactivity of the OFF negative-component blend (4c blend) for oviposition deterrence at three different doses (2, 0.2, and 0.02 mg CFA equivalent/agar), first comparing with hexane control, then with CFA at respective equivalent doses. As the 4c blend was not as effective as CFA, a “OFF negative+OFF neutral” component blend (6c blend) was then formulated, and its effect compared with CFA at 2 and 0.2 mg CFA equivalent/agar. Two subtraction blends with one of the two OFF neutral components removed from the 6c blend (5c-i and 5c-ii blends) were formulated and compared with the 6c blend at 2 and 0.2 mg CFA equivalent/agar. The experiment was replicated four to six times per treatment.

[5] = system: Bactrocera dorsalis; assay: B. dorsalis spatial deterrence, two-choice traps baited with guava juice; format: in vivo; conditions: tested individually
Method: In addition to CFA, a series of odd-numbered carbon fatty acids (C9:0 to C17:0) and fatty acid methyl esters were evaluated for the spatial deterrence to B. dorsalis that results in oviposition reduction. Table 3 below lists the fatty acid methyl esters tested for spatial repellency for Bactrocera dorsalis. […] FIG. 16A, FIG. 16C, FIG. 16E, FIG. 16G, FIG. 16I, FIG. 16K, FIG. 16M, FIG. 16O, FIG. 16Q, and FIG. 16S show the mean numbers (±SEM) of mated female B. dorsalis flies captured, and FIG. 16B, FIG. 16D, FIG. 16F, FIG. 16H, FIG. 16J, FIG. 16L, FIG. 16N, FIG. 16P, FIG. 16R, and FIG. 16T show the number of B. dorsalis eggs oviposited in traps baited with guava juice (control) and with guava juice plus one of the coconut fatty acid methyl ester compounds in two-choice bioassays. For each test, different letter on the bar indicate a significant difference by Tukey-Kramer tests at P<0.05, n=4.

## CCCC(=O)O [C4:0, Butyric acid]
[1]
  effect on melon fly oviposition vs control: did not affect melon fly oviposition
[2]
  effect on OFF oviposition: did not affect OFF oviposition

## CCCCCCCC/C=C\CCCCCCCC(=O)OC [C18:1ME, Methyl Oleate]
[3]
  fewer Z. cucurbitae captured in traps baited with FAME vs control: 91.8%

## CCCCCCCCCCCCC(=O)O [C13:0, Tridecylic acid]
[4]
  effect on OFF oviposition vs control agar: significantly reduced
[1]
  fewer melon fly eggs on treated pumpkin juice agar vs control agar: 75.7%

## CCCCCCCCCCCCCCC(=O)O [C15:0, Pentadecylic acid]
[1]
  effect on melon fly oviposition vs control: increased melon fly oviposition

## CCCCCCC(=O)O [C7:0, Enanthic acid]
[5]
  effect on female B. dorsalis attraction and oviposition to host fruit odors: significantly reduced
[1]
  effect on melon fly oviposition vs control: increased melon fly oviposition
[2]
  effect on OFF oviposition: did not affect OFF oviposition

## CCCCCCCCCCCCCC(=O)OC [C14:0 ME, Methyl myristate]
[3]
  effect on melon fly behavior: did not affect melon fly behavior

## CCCCCCCC(=O)OC [C8:0 ME, Methyl caprylate]
[5]
  effect on female B. dorsalis attraction and oviposition to host fruit odors: significantly reduced
[3]
  fewer Z. cucurbitae captured in traps baited with FAME vs control: 97.1%

## CCCCCCCCCCCCCCCCCC(=O)OC [C18:0ME, Methyl stearate]
[3]
  effect on melon fly behavior: did not affect melon fly behavior

## CCCCCCCCCC(=O)OC [C10:0 ME, Methyl caprate]
[5]
  effect on female B. dorsalis attraction and oviposition to host fruit odors: significantly reduced
[3]
  fewer Z. cucurbitae captured in traps baited with FAME vs control: 76.0%

## CCCCC(=O)O [C5:0, Valeric acid]
[1]
  fewer melon fly eggs on treated pumpkin juice agar vs control agar: 72.5%
[2]
  effect on OFF oviposition: did not affect OFF oviposition

## CCCCCC(=O)O [C6:0, Caproic acid]
[1]
  effect on melon fly oviposition vs control: increased melon fly oviposition
[2]
  effect on OFF oviposition: did not affect OFF oviposition

## CCCCCCCCCCCC(=O)OC [C12:0 ME, Methyl laurate]
[5]
  effect on female B. dorsalis attraction and oviposition to host fruit odors: significantly reduced
[3]
  fewer Z. cucurbitae captured in traps baited with FAME vs control: 55.5%

## CCCCCCCCC(=O)O [C9:0, Pelargonic acid]
[4]
  effect on OFF oviposition vs control agar: significantly reduced
[5]
  effect on female B. dorsalis attraction and oviposition to host fruit odors: significantly reduced
[1]
  effect on melon fly oviposition vs control: did not affect melon fly oviposition

## CCCCCCCCCCCCCCCCC(=O)O [C17:0, Margaric acid]
[1]
  effect on melon fly oviposition vs control: increased melon fly oviposition

## CCCCCCCCCCCCCCCC(=O)OC [C16:0 ME, Methyl palmitate]
[3]
  effect on melon fly behavior: did not affect melon fly behavior

## CCCCC/C=C\C/C=C\CCCCCCCC(=O)OC [C18:2ME, Methyl linoleate]
[3]
  effect on melon fly behavior: did not affect melon fly behavior

## CCCCCCCCCCCCCCCCCCC(=O)O [C19:0, Nonadecylic acid]
[1]
  effect on melon fly oviposition vs control: did not affect melon fly oviposition
